Reference: publication PMC6257465, “Synthesis of N-(Methoxycarbonylthienylmethyl)thioureas and Evaluation of Their Interaction with Inducible and Neuronal Nitric Oxide Synthase” (Molecules, 2010)

Target: T1, recombinant human iNOS (hiNOS) (Homo sapiens, UniProt P35228)
T1 construct: gene NOS2; human iNOS cDNA in pEFIRES-P, overexpressed in HT1080 fibrosarcoma cells; post-mitochondrial supernatant, arginine removed with Dowex-50W; homodimer
Assay: L-[U-14C]-arginine to L-[U-14C]-citrulline conversion assay
Type: biochemical
Conditions: 100 µM, test compound added simultaneously with L-[U-14C]-arginine
Text: L-[U-14C]-arginine to L-[U-14C]-citrulline conversion assay on recombinant human iNOS (hiNOS)

T1 sequence (P35228 whole entry): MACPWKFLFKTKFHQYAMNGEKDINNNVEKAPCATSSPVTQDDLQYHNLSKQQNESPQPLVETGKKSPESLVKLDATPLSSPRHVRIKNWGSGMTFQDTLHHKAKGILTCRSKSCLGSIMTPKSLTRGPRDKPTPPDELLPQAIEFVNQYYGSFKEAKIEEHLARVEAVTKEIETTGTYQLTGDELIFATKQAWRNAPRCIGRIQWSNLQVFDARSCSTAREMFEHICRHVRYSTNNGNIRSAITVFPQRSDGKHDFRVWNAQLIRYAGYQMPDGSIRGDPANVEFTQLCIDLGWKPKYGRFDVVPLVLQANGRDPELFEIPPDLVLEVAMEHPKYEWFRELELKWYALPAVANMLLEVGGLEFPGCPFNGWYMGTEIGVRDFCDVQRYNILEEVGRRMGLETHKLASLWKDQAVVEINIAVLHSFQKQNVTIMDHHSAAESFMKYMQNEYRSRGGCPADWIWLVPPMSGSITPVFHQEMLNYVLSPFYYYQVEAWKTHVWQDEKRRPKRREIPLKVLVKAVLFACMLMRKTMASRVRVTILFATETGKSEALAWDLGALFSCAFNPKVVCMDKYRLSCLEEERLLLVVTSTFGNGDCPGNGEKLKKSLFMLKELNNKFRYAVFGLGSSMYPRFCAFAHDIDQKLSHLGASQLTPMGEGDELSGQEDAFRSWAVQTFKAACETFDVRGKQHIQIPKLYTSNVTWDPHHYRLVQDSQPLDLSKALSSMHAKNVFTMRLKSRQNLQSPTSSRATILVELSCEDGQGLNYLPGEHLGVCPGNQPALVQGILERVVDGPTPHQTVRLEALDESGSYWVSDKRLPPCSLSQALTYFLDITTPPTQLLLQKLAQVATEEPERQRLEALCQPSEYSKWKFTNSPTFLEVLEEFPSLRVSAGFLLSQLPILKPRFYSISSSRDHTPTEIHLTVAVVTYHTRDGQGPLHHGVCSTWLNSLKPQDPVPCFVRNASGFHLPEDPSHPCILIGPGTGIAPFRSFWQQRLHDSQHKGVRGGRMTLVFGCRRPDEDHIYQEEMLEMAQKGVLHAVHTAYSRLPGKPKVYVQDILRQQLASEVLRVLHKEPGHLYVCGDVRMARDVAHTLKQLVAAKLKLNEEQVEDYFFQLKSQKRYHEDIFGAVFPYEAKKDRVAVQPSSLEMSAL

% Stimulation of hiNOS activity ^a / t = 0 min ^b	SMILES
+62 ± 2%	COC(=O)c1ccc(CNC(N)=S)s1 [compound 13, Methyl 5-(thioureidomethyl)thiophene-2-carboxylate]
+37 ± 27%	COC(=O)c1cc(CNC(N)=S)cs1 [compound 25, Methyl 4-(thioureidomethyl)thiophene-2-carboxylate]
